Data published in article PMC9154192 (PLoS Biology, 2022).
“And” between values parts separate entries of the source, which are not always exact repeats. Equal entries are not always repeated. Where two headings read alike, the source gives them in different places.

Legend:
[1] = system: GFP-expressing M. tuberculosis; assay type: cell-based, Mycobacterium tuberculosis; details: 1 μg/ml
[2] = assay type: cell-based
[3] = assay type: in vivo, female rats; set-up: unit not given here; details: for Plasma concentration, individual animals: female rats 1-6, single oral 100 mg/kg, 100 mg/kg; for Plasma concentration, Average: female rats, average of 6 animals
[4] = TA100, 4.88 μg/plate, absence of S9 mix
[5] = TA100, 4.88 μg/plate, presence of S9 mix
[6] = TA100, 78.1 μg/plate, absence of S9 mix
[7] = TA100, 78.1 μg/plate, presence of S9 mix
[8] = TA100, 313 μg/plate, absence of S9 mix
[9] = TA100, 313 μg/plate, presence of S9 mix
[10] = TA1535, 4.88 μg/plate, absence of S9 mix
[11] = TA1535, 4.88 μg/plate, presence of S9 mix
[12] = TA1535, 78.1 μg/plate, absence of S9 mix
[13] = TA1535, 78.1 μg/plate, presence of S9 mix
[14] = TA1535, 313 μg/plate, absence of S9 mix
[15] = TA1535, 313 μg/plate, presence of S9 mix
[16] = TA1537, 4.88 μg/plate, absence of S9 mix
[17] = TA1537, 4.88 μg/plate, presence of S9 mix
[18] = TA1537, 78.1 μg/plate, absence of S9 mix
[19] = TA1537, 78.1 μg/plate, presence of S9 mix
[20] = TA1537, 313 μg/plate, absence of S9 mix
[21] = TA1537, 313 μg/plate, presence of S9 mix
[22] = WP2uvrA (pKM101), 4.88 μg/plate, absence of S9 mix
[23] = WP2uvrA (pKM101), 4.88 μg/plate, presence of S9 mix
[24] = WP2uvrA (pKM101), 78.1 μg/plate, absence of S9 mix
[25] = WP2uvrA (pKM101), 78.1 μg/plate, presence of S9 mix
[26] = WP2uvrA (pKM101), 313 μg/plate, absence of S9 mix

## CCCCOc1ccc2cc(CN3C(=O)CC[C@H]3C(=O)OC)c3cc(OC)c(OC)cc3c2c1 [PP2S, Methyl (S)-1-((3-butoxy-6,7-dimethoxyphenanthren-9-yl)methyl)-5-oxopyrrolidine-2-carboxylate]
[1]
  green signal of GFP-expressing M. tuberculosis in infected cells: decrease in green signal
[2]; [4]
  Individual revertant colony counts: 77 colonies per plate and 71 colonies per plate
  Mean revertant colonies: 74 colonies per plate
[2]; [5]
  Individual revertant colony counts: 116 colonies per plate and 111 colonies per plate
  Mean revertant colonies: 114 colonies per plate
[2]; [6]
  Individual revertant colony counts: 78 colonies per plate and 85 colonies per plate
  Mean revertant colonies: 82 colonies per plate
[2]; [7]
  Individual revertant colony counts: 111 colonies per plate and 107 colonies per plate
  Mean revertant colonies: 109 colonies per plate
[2]; [8]
  Individual revertant colony counts: 98 colonies per plate and 95 colonies per plate
  Mean revertant colonies: 97 colonies per plate
[2]; [9]
  Individual revertant colony counts: 111 colonies per plate and 107 colonies per plate
  Mean revertant colonies: 109 colonies per plate
[2]; [10]
  Individual revertant colony counts: 18 colonies per plate and 19 colonies per plate
  Mean revertant colonies: 19 colonies per plate
[2]; [11]
  Individual revertant colony counts: 10 colonies per plate and 12 colonies per plate
  Mean revertant colonies: 11 colonies per plate
[2]; [12]
  Individual revertant colony counts: 18 colonies per plate and 19 colonies per plate
  Mean revertant colonies: 19 colonies per plate
[2]; [13]
  Individual revertant colony counts: 17 colonies per plate and 15 colonies per plate
  Mean revertant colonies: 16 colonies per plate
[2]; [14]
  Individual revertant colony counts: 15 colonies per plate and 17 colonies per plate
  Mean revertant colonies: 16 colonies per plate
[2]; [15]
  Individual revertant colony counts: 16 colonies per plate and 15 colonies per plate
  Mean revertant colonies: 16 colonies per plate
[2]; [16]
  Individual revertant colony counts: 10 colonies per plate and 11 colonies per plate
  Mean revertant colonies: 11 colonies per plate
[2]; [17]
  Individual revertant colony counts: 16 colonies per plate and 14 colonies per plate
  Mean revertant colonies: 15 colonies per plate
[2]; [18]
  Individual revertant colony counts: 11 colonies per plate and 10 colonies per plate
  Mean revertant colonies: 11 colonies per plate
[2]; [19]
  Individual revertant colony counts: 18 colonies per plate and 17 colonies per plate
  Mean revertant colonies: 18 colonies per plate
[2]; [20]
  Individual revertant colony counts: 9 colonies per plate and 8 colonies per plate
  Mean revertant colonies: 9 colonies per plate
[2]; [21]
  Individual revertant colony counts: 18 colonies per plate and 19 colonies per plate
  Mean revertant colonies: 19 colonies per plate
[2]; [22]
  Individual revertant colony counts: 92 colonies per plate and 86 colonies per plate
  Mean revertant colonies: 89 colonies per plate
[2]; [23]
  Individual revertant colony counts: 149 colonies per plate and 156 colonies per plate
  Mean revertant colonies: 153 colonies per plate
[2]; [24]
  Individual revertant colony counts: 87 colonies per plate and 94 colonies per plate
  Mean revertant colonies: 91 colonies per plate
[2]; [25]
  Individual revertant colony counts: 156 colonies per plate and 167 colonies per plate
  Mean revertant colonies: 162 colonies per plate
[2]; [26]
  Individual revertant colony counts: 91 colonies per plate and 93 colonies per plate
  Mean revertant colonies: 92 colonies per plate
[2]; WP2uvrA (pKM101), 313 μg/plate, presence of S9 mix
  Individual revertant colony counts: 162 colonies per plate and 165 colonies per plate
[2]; bacterial reverse mutation test
  genotoxicity: did not show genotoxicity
[3]; 2 h
  Plasma concentration, individual animals: 237.59
[3]; 4 h
  Plasma concentration, individual animals: 316.47
[3]; 6 h
  Plasma concentration, individual animals: 323.47
[3]; 8 h
  Plasma concentration, individual animals: 253.32
[3]; 10 h
  Plasma concentration, individual animals: 217.50
[3]; 12 h
  Plasma concentration, individual animals: 210.07
[3]; 14 h
  Plasma concentration, individual animals: 174.31
[3]; 16 h
  Plasma concentration, individual animals: 211.29
[3]; 18 h
  Plasma concentration, individual animals: 122.20
[3]; 20 h
  Plasma concentration, individual animals: 116.07
[3]; 22 h
  Plasma concentration, individual animals: 87.81
[3]; 24 h
  Plasma concentration, individual animals: 63.19
[3]; single oral 100 mg/kg, 2 h
  Plasma concentration, Average: 320.00
[3]; single oral 100 mg/kg, 4 h
  Plasma concentration, Average: 432.00
[3]; single oral 100 mg/kg, 6 h
  Plasma concentration, Average: 276.00
[3]; single oral 100 mg/kg, 8 h
  Plasma concentration, Average: 154.00
[3]; single oral 100 mg/kg, 10 h
  Plasma concentration, Average: 132.00
[3]; single oral 100 mg/kg, 12 h
  Plasma concentration, Average: 110.00
[3]; single oral 100 mg/kg, 14 h
  Plasma concentration, Average: 97.00
[3]; single oral 100 mg/kg, 16 h
  Plasma concentration, Average: 81.00
[3]; single oral 100 mg/kg, 18 h
  Plasma concentration, Average: 78.00
[3]; single oral 100 mg/kg, 20 h
  Plasma concentration, Average: 67.00
[3]; single oral 100 mg/kg, 22 h
  Plasma concentration, Average: 52.00
[3]; single oral 100 mg/kg, 24 h
  Plasma concentration, Average: 35.00
[3]; single oral 150 mg/kg, 18 h
  Plasma concentration, Average: 85.00
[3]; single oral 150 mg/kg, 20 h
  Plasma concentration, Average: 76.00
[3]; single oral 150 mg/kg, 22 h
  Plasma concentration, Average: 63.00
[3]; single oral 150 mg/kg, 24 h
  Plasma concentration, Average: 42.00
